Paper PMC12067444, “Synthesis and Pharmacological Characterization of Novel Peripheral Cannabinoid-1 Receptor Blockers Based on a Tricyclic Scaffold” (Journal of Medicinal Chemistry, 2025)
Like-named read-outs stand apart in the source and are kept apart here.

How the values were obtained:
TA100 = assay: Mini-Ames assay, strain TA100; format: cell-based; conditions: for F value: fold vs DMSO; for Growth of lawn: replicates 1-3
Experimental: Mini Am es assay. To conduct the assay, top agar was melted with a microwave and maintained at a temper atur e ≥47 °C in a water bath. T he assay was performed using a heat block set to 45 °C ± 2 °C. 12 × 75 mm test tubes were prepared in duplicates. For each concentration, the following components were added sequentially to a test tube:
[…] The mixture was vortexed and then dispensed into w ells using a dispo sable pipette. The plates wer e then incubated at 37±2 °C for approximately 48 to 72 hours.
BBbbbb BBBBbbbb BBBB = AAAAbbbbbbAAbb nnnnnnbbbbbb bboo bbbbAAbbbbbbbbnnbbbb oobbbb bbbb eeee dd bbbbbb AAbbbbnn gg AAAAbbbbbbAAbb nnnnnnbbbbbb bbBB bbbbAAbbbbbbbbnnbbbb BBbbbb DDDDDDDD nn bbAAbbbbaaAAbb AAbbbbnnaa The mutagenicity of the compound was determined by evaluating the number of revertant colonies in strains TA98 and TA100. A compound was […]
related and if the fold increase in revertants (F) was equal to or greater than 2 for […]
background lawn growth on the agar plates. A scoring system ranging from 0 to 4 […]
complete cytotoxicity, while scores 1, 2, and 3 represented 25%, 50%, and 75% growth, respectively. A score of 4 signified full '100%' growth. The background […]
background lawn and required magnification for visualization. […]

[1] = Tissue distribution after acute oral administration; format: in vivo, mouse; conditions: for Kp at 1 h: male, C57Bl/6J, mouse, in vivo, 1 mg/kg PO, 1 h post-acute administration
Experimental: Male C57Bl/6J mice aged 7–9 weeks (3–4 mice per compound) were fasted overnight before administering each test compound. The compounds were accurately weighed and mixed with an appropriate vehicle to prepare a clear oral solution. The formulations were freshly prepared on the dosing day, and the mice were administered the compound via oral gavage within 4 h of formulation preparation. 1, 2, 4, and 8 h after compound administration, the mice were euthanized, and approximately 200 μL of blood was collected via cardiac puncture for plasma preparation. Brain and liver tissues were harvested and processed for analysis. Sample analysis was performed using LC-MS/MS, as described in detail in the SI. […]
calculated using the equation:
Lucif er yellow = VV bbbbbbbbbbbbbbbbbbbb ×RR FFFF bbbbbbbbbbbbbbbbbbbb ×100 […]
Measurements of BNS808 using LC-MS/MS. MS/MS analyses were conducted using a Sciex QTRAP® 6500+ mass spectrometer (Framingham, MA, USA). Air was […]
Infinity 1031 nitrogen generator (Peak Scientific, Inchinnan, Scotland). Purified air […]
generator to ensure a continuous and stable air supply.

C57BL/6J mice = assay: Assessment of centrally mediated hyperactivity (locomotor activity); format: in vivo, mouse
Experimental: The activity profiles of the mice were evaluated using the Promethion High-Definition Behavioral Phenotyping System (Sable Instruments, Inc., Las Vegas, NV, USA). MetaScreen software version 2.2.18.0 was employed for data acquisition and instrument control, while ExpeData version 1.8.4 was used for processing raw data. An analysis script detailing all aspects of the data transformation was utilized. Mice with unrestricted access to food and water were subjected to a standard 12 h light/12 h dark cycle, comprising a 16-h acclimation period followed by 24 h of sampling. Ambulatory activity and position were concurrently quantified by the number of disruptions of the infrared beams in three dimensions (XYZ) with a beam spacing of 0.25 cm.
This experiment aimed to evaluate the capacity of BNS808 and rimonabant (used as a positive control) to elicit centrally mediated hyperactivity in mice (a known feature of a brain penetrant compound). For this purpose, male wild-type C57BL/6J mice received a single dose of either the vehicle, rimonabant (10 mg/kg, PO), or BNS808 (1 or 10 mg/kg, PO). The locomotor activity was quantified by measuring the disruptions of infrared beams in two dimensions (XY) for 1 h. Each testing session involved evaluating two groups at a time.

## O=S(=O)(NC1CCCOc2c1nn(-c1ccccc1Cl)c2-c1ccc(Cl)cc1)c1ccc(Cl)cc1 (centres unmarked) [BNS808, 4-chloro-N-[2-(2-chlorophenyl)-3-(4-chlorophenyl)-5,6,7,8-tetrahydrooxepino[3,2-c]pyrazol-8-yl]benzenesulfonamide]
TA100; TA100, +S9, 31.25 μg/well
  Number of revertants MEAN: 40.67
  solubility: P0
  F value: 1.03
  Growth of lawn: 4 (A score of 4 signified full '100%' growth)
TA100; TA100, +S9, 62.5 μg/well
  Number of revertants MEAN: 34.67
  solubility: P0
  F value: 0.87
  Growth of lawn: 4 (A score of 4 signified full '100%' growth)
TA100; TA100, +S9, 125 μg/well
  Number of revertants MEAN: 30.00
  solubility: P0
  F value: 0.76
  Growth of lawn: 4 (A score of 4 signified full '100%' growth)
TA100; TA100, +S9, 250 μg/well
  Number of revertants MEAN: 29.33
  solubility: P1 (0~20% growth of crystals)
  F value: 0.74
  Growth of lawn: 4 (A score of 4 signified full '100%' growth)
TA100; TA100, +S9, 500 μg/well
  Number of revertants MEAN: 19.33
  solubility: P2 (20%~60% growth of crystals)
  F value: 0.49
  Growth of lawn: 4 (A score of 4 signified full '100%' growth)
TA100; TA100, +S9, 1000 μg/well
  Number of revertants MEAN: 16.67
  solubility: P3 (60%~100% growth of crystals)
  F value: 0.42
  Growth of lawn: 4 (A score of 4 signified full '100%' growth)
TA100; TA100, -S9, 31.25 μg/well
  Number of revertants MEAN: 29.00
  solubility: P0
  F value: 0.97
  Growth of lawn: 4 (A score of 4 signified full '100%' growth)
TA100; TA100, -S9, 62.5 μg/well
  Number of revertants MEAN: 23.67
  solubility: P0
  F value: 0.79
  Growth of lawn: 4 (A score of 4 signified full '100%' growth)
TA100; TA100, -S9, 125 μg/well
  Number of revertants MEAN: 22.67
  solubility: P0
  F value: 0.76
  Growth of lawn: 4 (A score of 4 signified full '100%' growth)
TA100; TA100, -S9, 250 μg/well
  Number of revertants MEAN: 23.00
  solubility: P1 (0~20% growth of crystals)
  F value: 0.77
  Growth of lawn: 4 (A score of 4 signified full '100%' growth)
TA100; TA100, -S9, 500 μg/well
  Number of revertants MEAN: 18.67
  solubility: P2 (20%~60% growth of crystals)
  F value: 0.62
  Growth of lawn: 4 (A score of 4 signified full '100%' growth)
[1]; 1 mg/kg PO acute, time point not stated
  liver concentration: ~200 ng/g
[1]; 1 mg/kg PO single acute dose, lean C57Bl/6 mice, 1, 2, 4, 8 h
  brain concentration, average over time points: 13.7 ng/g
[1]; read-out: brain-to-plasma (B/P) ratio
  Kp at 1 h: 0.18
[1]; read-out: liver/plasma (L/P) ratio
  Kp at 1 h: 3.62
C57BL/6J mice; 1 mg/kg and 10 mg/kg PO, mice
  CNS-mediated side effects: No CNS-mediated side effects were observed
C57BL/6J mice; single dose 1 or 10 mg/kg PO, male C57Bl/6J mice, 1 h
  locomotor activity (centrally mediated hyperactivity): no significant changes in locomotor activity
